Laboratory results as given in PubChem BioAssay (NCI).
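Five compound concentrations were applied to cells in 96-well plates for 48 hours; endpoints were derived by simple linear interpolation of the resulting dose-response curve. TGI: concentration producing complete growth inhibition.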

Experiments:
Assay in all cases: NCI anticancer screen, dose series, 48 h
[1] = system: CAKI-1 renal
[2] = system: EKVX NSCLC
[3] = system: HCT-116 colon
[4] = system: HT29 colon
[5] = system: IGROV1 ovarian
[6] = system: MALME-3M melanoma
[7] = system: NCI-H460 lung
[8] = system: OVCAR-3 ovarian
[9] = system: RPMI-8226 leukemia
[10] = system: SNB-19 CNS

COc1cc(/C=C2\CCc3cc(OC)c(OC)cc3C2=O)cc(OC)c1
TGI [1]: > 100 µM
TGI [2]: > 100 µM
TGI [3]: > 42.3 µM
TGI [4]: > 100 µM
TGI [5]: > 100 µM
TGI [6]: > 100 µM
TGI [7]: > 100 µM
TGI [8]: > 42 µM
TGI [9]: > 60.1 µM
TGI [10]: > 100 µM

OCC1CCCCN1Cc1nc2ccc(Cl)cc2[nH]1 (centres undefined)
TGI [1]: > 100 µM
TGI [2]: > 100 µM
TGI [3]: > 100 µM
TGI [4]: > 100 µM
TGI [5]: > 100 µM
TGI [6]: > 100 µM
TGI [7]: > 100 µM
TGI [8]: > 100 µM
TGI [9]: > 100 µM
TGI [10]: > 100 µM

N#Cc1nc(Cc2ccccc2)oc1N
TGI [1]: > 100 µM
TGI [2]: > 100 µM
TGI [3]: > 100 µM
TGI [4]: > 100 µM
TGI [5]: > 100 µM
TGI [6]: > 100 µM
TGI [7]: > 100 µM
TGI [8]: > 100 µM
TGI [9]: > 100 µM
TGI [10]: > 100 µM

O=[N+]([O-])C(=C/C1CCCCC1)/C(=C\C1CCCCC1)[N+](=O)[O-]
TGI [1]: 11.1 µM
TGI [2]: 24.9 µM
TGI [3]: 17.7 µM
TGI [4]: 28.8 µM
TGI [5]: 20.6 µM
TGI [6]: 6.69 µM
TGI [7]: 12.5 µM
TGI [8]: 31.6 µM
TGI [9]: 5.4 µM
TGI [10]: 35.7 µM

CCOC(=O)c1ccc(Nc2nc3ccc(C(F)(F)F)cc3nc2-c2ccccc2)cc1
TGI [1]: > 100 µM
TGI [2]: > 100 µM
TGI [3]: > 100 µM
TGI [4]: > 100 µM
TGI [5]: > 100 µM
TGI [6]: > 100 µM
TGI [7]: > 100 µM
TGI [8]: > 100 µM
TGI [9]: > 100 µM
TGI [10]: > 100 µM

CCOC(=O)/C=C/[C@H](O[Si](c1ccccc1)(c1ccccc1)c1ccccc1)C(C)(C)C
TGI [1]: > 31.6 µM
TGI [2]: > 31.6 µM
TGI [3]: > 31.6 µM
TGI [4]: > 31.6 µM
TGI [5]: > 31.6 µM
TGI [6]: > 31.6 µM
TGI [8]: > 31.6 µM
TGI [9]: > 29 µM
TGI [10]: > 31.6 µM

CNC=O
TGI [1]: > 10000 µM
TGI [2]: > 10000 µM
TGI [3]: > 10000 µM
TGI [4]: > 10000 µM
TGI [5]: > 10000 µM
TGI [6]: > 10000 µM
TGI [7]: > 10000 µM
TGI [8]: > 10000 µM
TGI [9]: > 10000 µM
TGI [10]: > 10000 µM

C/C=C/[C@@H]1O[C@H](CC#C[Si](C)(C)C)[C@@]2(C=O)C(C)=CC[C@H](C(C)C)[C@@H]12
TGI [1]: 5.13 µM
TGI [2]: 41 µM
TGI [3]: 36.9 µM
TGI [4]: 46.2 µM
TGI [5]: 10.7 µM
TGI [6]: 37.2 µM
TGI [7]: 39.8 µM
TGI [8]: 42.4 µM
TGI [9]: 52.2 µM
TGI [10]: 62.3 µM

COc1ccc2c(-c3ccc(O)cc3)c(Oc3ccccc3)c(=O)oc2c1
TGI [1]: > 100 µM
TGI [2]: > 77.8 µM
TGI [3]: > 93.5 µM
TGI [4]: 98.2 µM
TGI [5]: > 62.3 µM
TGI [6]: > 86.3 µM
TGI [7]: > 100 µM
TGI [8]: > 100 µM
TGI [9]: > 100 µM
TGI [10]: > 53.7 µM

c1ccc2c(Cc3c[nH]c4ccccc34)c[nH]c2c1
TGI [1]: 31.4 µM
TGI [2]: 32.5 µM
TGI [3]: 31.2 µM
TGI [4]: 30.2 µM
TGI [5]: 30.7 µM
TGI [6]: 51 µM
TGI [7]: 40.5 µM
TGI [8]: 30.8 µM
TGI [9]: 68.8 µM
TGI [10]: 44.4 µM

C/C(=C1/N=C(c2cc([N+](=O)[O-])ccc2Cl)N(C2=CC=C(Cl)CC2)C1=O)c1cc2ccccc2oc1=O
TGI [1]: > 100 µM
TGI [2]: > 100 µM
TGI [3]: > 100 µM
TGI [4]: > 100 µM
TGI [5]: > 100 µM
TGI [6]: > 100 µM
TGI [7]: > 100 µM
TGI [8]: > 100 µM
TGI [9]: > 100 µM
TGI [10]: > 100 µM
